Measured values taken from patent publication US8148410B2, “Thiophene derivatives as agonists of S1P1/EDG1” (Actelion Pharmaceuticals Ltd., priority 2007, dated 2012).

Key:
[1] = target: recombinant human S1P1 receptor (Homo sapiens, UniProt P21453); assay: GTPγS assay to determine EC50 values; type: biochemical; details: agonist concentration inducing 50% of maximal specific 35S-GTPγS binding; membranes of CHO cells expressing recombinant human S1P1
Protocol: GTPγS Assay to Determine EC50 Values
GTPγS binding assays are performed in 96 well microtiter plates (Nunc, 442587) in a final volume of 200 μl, using membrane preparations of CHO cells expressing recombinant human S1P1 receptor. Assay conditions are 20 mM Hepes (Fluka, 54461), 100 mM NaCl (Fluka, 71378), 5 mM MgCl2 (Fluka, 63064), 0.1% BSA (Calbiochem, 126609), 1 μM GDP (Sigma, G-7127), 2.5% DMSO (Fluka, 41644), 50 pM ^35S-GTPγS (Amersham Biosciences, SJ1320). The pH is 7.4. Test compounds are dissolved and diluted in 100% DMSO and pre-incubated at room temperature for 30 min in 150 μl of the above assay buffer, in the absence of ^35S-GTPγS. After addition of 50 μl of ^35S-GTPγS, the assay is incubated for 1 h at rt. The assay is terminated by transfer of the reaction mixture to a Multiscreen plate (Millipore, MAHFC1H60) using a cell harvester from Packard Biosciences, and the plates are washed with ice-cold 10 mM Na2HPO4/NaH2PO4 (70%/30%), dried, sealed at the bottom and, after addition of 25 μl MicroScint20 (Packard Biosciences, order #6013621), sealed on the top. Membrane-bound ^35S-GTPγS is measured with a TopCount from Packard Biosciences.
Specific binding is determined by subtracting non-specific binding from maximal binding. Maximal binding is the amount of cpm bound to the Multiscreen plate in the presence of 10 μM of S1P. Non-specific binding is the amount of binding in the absence of an agonist in the assay.

circulating lymphocytes = assay: Assessment of in vivo efficacy: circulating lymphocytes after oral administration; set-up: species or system normotensive male Wistar rats; details: 3 h after oral administration of 10 mg/kg, compared to animals treated with vehicle only; mean ± SEM
Protocol: Assessment of In Vivo Efficacy
The efficacy of the compounds of Formula (I) is assessed by measuring the circulating lymphocytes after oral administration of 3 to 30 mg/kg of a compound of Formula (I) to normotensive male Wistar rats. The animals are housed in climate-controlled conditions with a 12 h-light/dark cycle, and have free access to normal rat chow and drinking water. Blood is collected before and 3, 6 and 24 h after drug administration. Full blood is subjected to hematology using Advia Hematology system (Bayer Diagnostics, Zürich, Switzerland).
All data are presented as mean±SEM. Statistical analyses are performed by analysis of variance (ANOVA) using Statistica (StatSoft) and the Student-Newman-Keuls procedure for multiple comparisons. The null hypothesis is rejected when p<0.05.

Sequence of recombinant human S1P1 receptor (P21453 whole entry): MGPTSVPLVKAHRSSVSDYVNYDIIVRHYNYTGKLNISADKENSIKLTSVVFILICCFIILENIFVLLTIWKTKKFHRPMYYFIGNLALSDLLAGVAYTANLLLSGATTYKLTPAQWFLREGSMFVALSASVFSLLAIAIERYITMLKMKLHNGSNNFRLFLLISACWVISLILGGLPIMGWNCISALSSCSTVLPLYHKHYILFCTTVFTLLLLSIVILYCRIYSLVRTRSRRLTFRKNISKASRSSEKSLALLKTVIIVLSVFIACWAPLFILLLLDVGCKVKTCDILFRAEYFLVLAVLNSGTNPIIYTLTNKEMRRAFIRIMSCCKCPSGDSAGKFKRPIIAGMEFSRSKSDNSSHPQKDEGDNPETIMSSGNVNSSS

SMILES	EC50 [1]	Lymphocyte counts (circulating lymphocytes)
CCc1cc(-c2noc(-c3cc(C)c(CN(CC)CC)s3)n2)cc(C)c1CCC(=O)NCC(=O)O [Example 106]	8.6 nM	
CNCc1sc(-c2nc(-c3cc(C)c(OCC(O)CNC(=O)CO)c(C)c3)no2)cc1C (racemic) [Example 21]	3.8 nM	
CCN(CC)Cc1sc(-c2nc(-c3cc(C)c(OC[C@@H](O)CNC(=O)CO)c(Cl)c3)no2)cc1C [Example 195, N-((2S)-3-{4-[5-(5-Diethylaminomethyl-4-methyl-thiophen-2-yl)-[1,2,4]oxadiazol-3-yl]-2-chloro-6-methyl-phenoxy}-2-hydroxy-propyl)-2-hydroxy-acetamide]	0.2 nM	
Cc1cc(-c2nc(-c3cc(C)c(OC[C@@H](O)CNC(=O)CO)c(C)c3)no2)sc1CN(C)C [Example 87, N-((2S)-3-{4-[5-(5-Dimethylaminomethyl-4-methyl-thiophen-2-yl)-[1,2,4]oxadiazol-3-yl]-2,6-dimethyl-phenoxy}-2-hydroxy-propyl)-2-hydroxy-acetamide]	0.6 nM	
CCc1cc(-c2nc(-c3cc(C)c(CN(CC)CC)s3)no2)cc(C)c1OC[C@@H](O)CNC(=O)CO [Example 149]	1.6 nM	
CCc1cc(-c2noc(-c3cc(C)c(CN(CC)CC)s3)n2)cc(C)c1OC[C@@H](O)CNCC(=O)O [Example 220]	3.4 nM	
CCc1cc(-c2noc(-c3cc(C)c(CN(C)CC)s3)n2)cc(C)c1OC[C@@H](O)CNC(=O)CO [Example 52]	2.2 nM	
CCN(CC)Cc1sc(-c2nc(-c3cc(C)c(CCC(=O)O)c(C)c3)no2)cc1C [Example 44]	12.1 nM	
CCCN(CC)Cc1sc(-c2nc(-c3cc(C)c(CCC(=O)NCCC(=O)O)c(CC)c3)no2)cc1C [Example 119]	2.1 nM	
CCCCN(C)Cc1sc(-c2nc(-c3cc(C)c(OC[C@@H](O)CNC(=O)CO)c(CC)c3)no2)cc1C [Example 54]	2 nM	
CCN(CC)Cc1sc(-c2nc(-c3ccc(OCC(O)CNC(=O)CO)cc3C)no2)cc1C (stereo not shown) [Example 196, N-(3-{4-[5-(5-Diethylaminomethyl-4-methyl-thiophen-2-yl)-[1,2,4]oxadiazol-3-yl]-3-methyl-phenoxy}-2-hydroxy-propyl)-2-hydroxy-acetamide]	13 nM	
CCc1cc(-c2noc(-c3cc(C)c(CN(CC)CC)s3)n2)cc(C)c1OC[C@@H](O)CN1CCC(C(=O)O)C1 (stereo partly drawn) [Example 205, 1-((2S)-3-{4-[5-(5-Diethylaminomethyl-4-methyl-thiophen-2-yl)-[1,2,4]oxadiazol-3-yl]-2-ethyl-6-methyl-phenoxy}-2-hydroxy-propyl)-pyrrolidine-3-carboxylic acid]	18.4 nM	
CCc1cc(-c2noc(-c3cc(C)c(CN(CC)C(C)C)s3)n2)cc(C)c1OC[C@@H](O)CNC(=O)CO [Example 58]	3.3 nM	
CCN(CC)Cc1sc(-c2nc(-c3cc(C)c(OC[C@@H](O)CNC(=O)CO)c(OC)c3)no2)cc1C [Example 194, N-((2S)-3-{4-[5-(5-Diethylaminomethyl-4-methyl-thiophen-2-yl)-[1,2,4]oxadiazol-3-yl]-2-methoxy-6-methyl-phenoxy}-2-hydroxy-propyl)-2-hydroxy-acetamide]	2.5 nM	
CCc1cc(-c2nnc(-c3cc(C)c(CN(C)C)s3)o2)cc(C)c1OC[C@@H](O)CNC(=O)CO [Example 150, N-((2S)-3-{4-[5-(5-Dimethylaminomethyl-4-methyl-thiophen-2-yl)-[1,3,4]oxadiazol-2-yl]-2-ethyl-6-methyl-phenoxy}-2-hydroxy-propyl)-2-hydroxy-acetamide]	5.4 nM	
CCc1cc(-c2noc(-c3cc(C)c(CN(CC)CC)s3)n2)cc(C)c1OC[C@@H](O)CNC(=O)CN [Example 225]	1.1 nM	
CCc1cc(-c2noc(-c3cc(C)c(CN(CC)CC)s3)n2)cc(C)c1OC[C@@H](O)CNC(=O)CCO [Example 223]	6.2 nM	
CCc1cc(-c2noc(-c3cc(C)c(CN(CC)CC)s3)n2)cc(C)c1OC[C@@H](O)CNC(CO)CO [Example 214]	1.7 nM	
CCN(CC)Cc1sc(-c2nc(-c3cc(C)c(OC[C@@H](O)CO)c(Cl)c3)no2)cc1C [Example 198, (2S)-3-{2-Chloro-4-[5-(5-diethylaminomethyl-4-methyl-thiophen-2-yl)-[1,2,4]oxadiazol-3-yl]-6-methyl-phenoxy}-propane-1,2-diol]	2.1 nM	

SMILES	EC50 [1]	Lymphocyte counts (circulating lymphocytes)
Cc1cc(-c2nc(-c3cc(C)c(OCC(O)CNC(=O)CO)c(C)c3)no2)sc1CN1CCCC1 (racemic) [Example 32]	11.2 nM	
Cc1cc(-c2nc(-c3cc(C)c(OCC(O)CNC(=O)CO)c(C)c3)no2)sc1CNC(C)C (racemic) [Example 24]	11 nM	
CCCN(C)Cc1sc(-c2nc(-c3cc(C)c(OC[C@@H](O)CNC(=O)CO)c(CC)c3)no2)cc1CC [Example 84]	0.8 nM	
CCCN(C)Cc1sc(-c2nc(-c3cc(C)c(CCC(=O)O)c(CC)c3)no2)cc1CC [Example 86]	9.1 nM	
CCN(CCO)Cc1sc(-c2nc(-c3cc(C)c(OCC(O)CNC(=O)CO)c(C)c3)no2)cc1C (racemic) [Example 31]	8.1 nM	
CCN(Cc1sc(-c2nc(-c3cc(C)c(OC[C@@H](O)CNC(=O)CO)c(C)c3)no2)cc1C)C(C)C [Example 92, N-{(2S)-3-[4-(5-{5-[(Ethyl-isopropyl-amino)-methyl]-4-methyl-thiophen-2-yl}-[1,2,4]oxadiazol-3-yl)-2,6-dimethyl-phenoxy]-2-hydroxy-propyl}-2-hydroxy-acetamide]	0.5 nM	
CCCCN(CC)Cc1sc(-c2nc(-c3cc(C)c(OC[C@@H](O)CNC(=O)CO)c(CC)c3)no2)cc1C [Example 59]	7 nM	
CCCN(C)Cc1sc(-c2nc(-c3cc(C)c(CCC(=O)NCC(=O)OC)c(CC)c3)no2)cc1C [Example 98]	17.3 nM	
CCCN(CC)Cc1sc(-c2nc(-c3cc(C)c(OC[C@@H](O)CNC(=O)CO)c(CC)c3)no2)cc1C [Example 57]	2.8 nM	
CCCN(C)Cc1sc(-c2nc(-c3cc(C)c(CCC(=O)NCCC(=O)O)c(CC)c3)no2)cc1C [Example 115]	10.5 nM	
CCc1cc(-c2noc(-c3cc(C)c(CN(CC)CC)s3)n2)cc(C)c1OC[C@@H](O)CNC(=O)CO [Example 56]	2.5 nM	−68 ± 1%
CCc1cc(-c2noc(-c3cc(C)c(CN(CC)CC)s3)n2)cc(C)c1OC[C@@H](O)CNCCO [Example 210]	9.6 nM	
Cc1cc(-c2nc(-c3cc(C)c(OCC(O)CNC(=O)CO)c(C)c3)no2)sc1CN(C)CCO (racemic) [Example 30]	10.2 nM	
CCCN(C)Cc1sc(-c2nc(-c3cc(C)c(OCC(O)CNC(=O)CO)c(C)c3)no2)cc1C (racemic) [Example 28]	0.2 nM	−68 ± 3%
CCc1cc(-c2noc(-c3cc(C)c(CN(CC)CC)s3)n2)cc(C)c1OC[C@@H](O)CNC(=O)CNC [Example 226]	3.5 nM	
CCc1cc(-c2noc(-c3cc(C)c(CN(CC)CC)s3)n2)cc(C)c1CCC(=O)NCCO [Example 136]	18.5 nM	
Cc1cc(-c2nc(-c3cc(C)c(OCC(O)CNC(=O)CO)c(C)c3)no2)sc1CN1CCCCC1 (racemic) [Example 33]	9.8 nM	
CCc1cc(-c2nc(-c3cc(C)c(OC[C@H](O)CO)c(CC)c3)no2)sc1CN(C)C [Example 81]	2.6 nM	
CCN(CC)Cc1sc(-c2nc(-c3cc(C)c(N)c(Cl)c3)no2)cc1C [Example 187, 2-Chloro-4-[5-(5-diethylaminomethyl-4-methyl-thiophen-2-yl)-[1,2,4]oxadiazol-3-yl]-6-methyl-phenylamine]	22 nM	
